Source: US20050014811A1, “Substituted benzimidazole compounds and their use for the treatment of cancer” (Aventis Pharma S.A., priority 2001, published 2005)
pIC50: −log10 of the molar value.

What was measured:
CDK4/CyclinD1 = CDK4/CyclinD1 (Homo sapiens, UniProt P11802); assay: CDK4/CyclinD1 Flashplate assay, 96-well format, biotinylated-Rb peptide substrate; type: biochemical
Outline: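 Biotinylated Rb peptide bound to streptavidin Flashplate; CDK4/CyclinD1 (70 ng/well) preincubated 30 min on ice with compound at 10, 3, 1, 0.3 and 0.1 μM final. Reaction with 1 μM cold ATP plus 33P-ATP for 45 min at RT; incorporated 33P counted, duplicates.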

CDK2/CyclinE = CDK2/CyclinE (Homo sapiens, UniProt P24941); assay: CDK2/CyclinE Flashplate assay, 96-well format, biotinylated-Rb peptide substrate; type: biochemical
Outline: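 Biotinylated Rb peptide was captured on streptavidin Flashplates, and CDK2/CyclinE (200 ng/well) was preincubated 30 min on ice with inhibitor at 10, 3, 1, 0.3 or 0.1 μM final. Reactions ran 45 min at RT with 1 μM ATP plus 1 μCi ^33P-ATP. After washing, incorporated ^33P was counted, in duplicate.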

Chain of CDK4/CyclinD1 (P11802 whole entry, species assumed): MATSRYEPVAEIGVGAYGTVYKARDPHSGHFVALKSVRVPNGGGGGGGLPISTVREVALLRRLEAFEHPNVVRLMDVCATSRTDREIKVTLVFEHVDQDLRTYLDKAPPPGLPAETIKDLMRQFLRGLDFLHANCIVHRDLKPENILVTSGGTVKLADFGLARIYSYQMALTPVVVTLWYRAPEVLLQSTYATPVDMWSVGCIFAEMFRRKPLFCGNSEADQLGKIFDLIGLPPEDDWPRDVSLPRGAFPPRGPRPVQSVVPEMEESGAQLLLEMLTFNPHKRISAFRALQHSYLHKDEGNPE
Chain of CDK4/CyclinD1 (P24385 whole entry partner, species assumed): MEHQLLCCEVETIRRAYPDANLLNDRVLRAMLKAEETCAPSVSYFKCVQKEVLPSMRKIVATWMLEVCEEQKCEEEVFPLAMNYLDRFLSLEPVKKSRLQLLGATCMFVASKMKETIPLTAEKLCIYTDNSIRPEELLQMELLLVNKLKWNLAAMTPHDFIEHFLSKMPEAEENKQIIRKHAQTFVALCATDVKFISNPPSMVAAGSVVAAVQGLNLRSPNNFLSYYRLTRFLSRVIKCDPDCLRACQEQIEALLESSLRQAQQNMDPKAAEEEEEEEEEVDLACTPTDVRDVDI

Row | SMILES | melting point [°C] | pIC50 (CDK4/CyclinD1) | pIC50 (CDK2/CyclinE)
1 | COC(=O)Nc1nc2cc(OS(=O)(=O)c3ccc(NCCO)cc3)ccc2[nH]1 [Example 1, Methyl-5-(4-[2-hydroxyethyl]aminophenylsulfonyloxy) benzimidazole-2-carbamate] | 170 | 5.82 | 6.22
2 | COC(=O)Nc1nc2cc(OS(=O)(=O)c3ccc(NCCCCO)cc3)ccc2[nH]1 [Example 2, Methyl-5-(4-[4-hydroxbutyl]aminophenylsulfonyloxy) benzimidazole-2-carbamate] | 180 | 5.70 | 6.15
3 | COCCNc1ccc(S(=O)(=O)Oc2ccc3[nH]c(NC(=O)OC)nc3c2)cc1 [Example 3, Methyl-5-(4-[2-methoxyethyl]aminophenylsulfonyloxy) benzimidazole-2-carbamate] | 155 | 5.62 | 6.30
4 | COC(=O)Nc1nc2cc(OS(=O)(=O)c3ccc(-n4ccnc4)cc3)ccc2[nH]1 [Example 4, Methyl-5-(4-[1-imidazolyl]-phenylsulfonyloxy) benzimidazole-2-carbamate] | 258 | 5.20 | 5.82
5 | COC(=O)Nc1nc2cc(OS(=O)(=O)c3ccc(-c4cc(C(F)(F)F)n(C)n4)s3)ccc2[nH]1 [Example 62-e, 5-(1-Methyl-5-trifluoromethyl-1H-pyrazol-3-yl)-thiophene-2-sulfonic acid 2-methoxycarbonylamino-1H-benzoimidazol-5-yl ester] |  | 5.34 | 6.00
6 | COC(=O)Nc1nc2cc(OS(=O)(=O)c3cccc(OC)c3)ccc2[nH]1 [Example 62-i, 3-Methoxy-benzenesulfonic acid 2-methoxycarbonylamino-1H-benzoimidazol-5-yl ester] |  | 5.82 | 6.00
7 | Cc1cc(C)cc(Nc2nc3cc(OS(=O)(=O)c4ccc(NC5CCCC5)cc4)ccc3[nH]2)c1 [Example 70-c, 4-Cyclopentylamino-benzenesulfonic acid 2-(3,5-dimethyl-phenylamino)-1H-benzoimidazol-5-yl ester] |  | 5.70 | 6.10

The next compounds have a higher pIC50 (CDK4/CyclinD1) than those just listed; values first:

Row | melting point [°C] | pIC50 (CDK4/CyclinD1) | pIC50 (CDK2/CyclinE) | SMILES
8 |  | 6.10 | 7.15 | COC(=O)Nc1nc2cc(OS(=O)(=O)c3c(F)cccc3F)ccc2[nH]1 [Example 62-h, 2,6-Difluoro-benzenesulfonic acid 2-methoxycarbonylamino-1H-benzoimidazol-5-yl ester]
9 |  | 6.08 | 6.89 | COc1ccc(Nc2nc3cc(OS(=O)(=O)c4ccc(NC5CCCC5)cc4)ccc3[nH]2)cc1OC [Example 69, 4-cyclopentylamino-benzenesulfonic acid 2-(3,4-dimethoxy-phenylamino)-1H-benzoimidazol-5-yl ester]
10 |  | 6.17 | 5.52 | O=S(=O)(Oc1ccc2[nH]c(Nc3ccc(N4CCOCC4)cc3)nc2c1)c1ccc(NC2CCCC2)cc1 [Example 70-b, 4-Cyclopentylamino-benzenesulfonic acid 2-(4-morpholin-4-yl-phenylamino)-1H-benzoimidazol-5-yl ester]
11 |  | 6.19 | 6.52 | COc1ccc(Nc2nc3cc(OS(=O)(=O)c4ccc(NC5CCCC5)cc4)ccc3[nH]2)cc1 [Example 70-d, 4-Cyclopentylamino-benzenesulfonic acid 2-(4-methoxy-phenylamino)-1H-benzoimidazol-5-yl ester]
12 |  | 6.30 | 6.10 | CN(C)c1ccc(Nc2nc3cc(OS(=O)(=O)c4ccc(NC5CCCC5)cc4)ccc3[nH]2)cc1 [Example 70-e, 4-Cyclopentylamino-benzenesulfonic acid 2-(4-dimethylamino-phenylamino)-1H-benzoimidazol-5-yl ester]
13 |  | 6.85 | 6.60 | CN1CCN(c2ccc(Nc3nc4cc(OS(=O)(=O)c5ccc(NC6CCCC6)cc5)ccc4[nH]3)cc2)CC1 [Example 70-h]
